Where a name gives a salt, the structure may show the parent alone.
Assays:
[1] = biological target: T1, NS5B 1a (Hepatitis C virus genotype 1a, UniProt P27958); assay: Assay of enzyme (HCV polymerase) inhibitory activity, NS5B 1a; format: biochemical; conditions: HCV polymerase NS5B 1a; [3H]UTP incorporation, 25° C., 90 min
T1 construct: NS5B 1a

[2] = biological target: T2, NS5B 1b (Hepatitis C virus genotype 1b, UniProt P26663); assay: Assay of enzyme (HCV polymerase) inhibitory activity, NS5B 1b; format: biochemical
T2 construct: a region encoding NS5B (J Virol 1991 March, 65(3), 1105-13, 544 amino acids after deletion of 47 amino acids on the C-terminal); 6 His (C); made in house; host or cells: Escherichia coli
T2 sequence (P26663 2420-2963): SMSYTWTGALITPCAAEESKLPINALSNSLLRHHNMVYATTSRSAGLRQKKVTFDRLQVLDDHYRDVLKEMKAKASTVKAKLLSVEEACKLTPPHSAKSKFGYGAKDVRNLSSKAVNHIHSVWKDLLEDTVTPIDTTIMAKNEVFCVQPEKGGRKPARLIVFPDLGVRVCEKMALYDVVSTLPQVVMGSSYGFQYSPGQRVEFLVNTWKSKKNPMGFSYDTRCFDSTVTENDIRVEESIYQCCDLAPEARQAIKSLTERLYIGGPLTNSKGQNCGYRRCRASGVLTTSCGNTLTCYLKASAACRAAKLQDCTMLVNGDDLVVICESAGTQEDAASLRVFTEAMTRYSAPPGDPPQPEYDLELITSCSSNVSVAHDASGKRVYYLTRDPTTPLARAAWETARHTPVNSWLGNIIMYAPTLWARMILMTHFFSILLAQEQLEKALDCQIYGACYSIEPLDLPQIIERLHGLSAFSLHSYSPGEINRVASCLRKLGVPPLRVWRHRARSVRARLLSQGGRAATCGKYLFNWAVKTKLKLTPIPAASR
Text: The evaluation of the HCV polymerase inhibitory activity of the compound of the present invention is explained in the following. This polymerase is an enzyme coded for by the non-structural protein region called NS5B on the genome RNA of HCV (EMBO J., 15:12-22, 1996).
i) Preparation of enzyme (HCV polymerase)
Using, as a template, a cDNA clone corresponding to the full length genome RNA of HCV BK strain obtained from the blood of a patient with hepatitis C, a region encoding NS5B (J Virol 1991 March, 65(3), 1105-13, 544 amino acids after deletion of 47 amino acids on the C-terminal) was amplified by PCR. The objective gene was prepared by adding a 6 His tag {base pair encoding 6 continuous histidine (His)} to the 3′ end thereof and transformed to Escherichia coli. The Escherichia coli capable of producing the objective protein was cultured. The obtained cells were suspended in a buffer solution and crushed in a microfluidizer. The supernatant was obtained by centrifugation and applied to various column chromatographys {mono-S, Sephacryl S-200 (Pharmacia)}, inclusive of metal chelate chromatography, to give a standard enzyme product.
ii) Synthesis of Substrate RNA
Using a synthetic primer designed based on the sequence of HCV genomic 3′ untranslated region, a DNA fragment (148 bp) containing polyU and 3′X sequence was entirely synthesized and cloned into plasmid pBluescript SK II(+) (Stratagene). The cDNA encoding full length NS5B, which was prepared in i) above, was digested with restriction enzyme KpnI to give a cDNA fragment containing the nucleotide sequence of from the restriction enzyme cleavage site to the termination codon. This cDNA fragment was inserted into the upstream of 3′ untranslated region of the DNA in pBluescript SK II(+) and ligated. The about 450 bp inserted DNA sequence was used as a template in the preparation of substrate RNA. This plasmid was cleaved immediately after the 3′X sequence, linearized and purified by phenol-chloroform treatment and ethanol precipitation to give DNA.
RNA was synthesized (37° C., 3 hr) by run-off method using this purified DNA as a template, a promoter of pBluescript SK II(+), MEGAscript RNA synthesis kit (Ambion) and T7 RNA polymerase. DNase I was added and the mixture was incubated for 1 hr. The template DNA was removed by decomposition to give a crude RNA product. This crude product was treated with phenol-chloroform and purified by ethanol precipitation to give the objective substrate RNA.
This RNA was applied to formaldehyde denaturation agarose gel electrophoresis to confirm the quality thereof and preserved at −80° C. iii) Assay of enzyme (HCV polymerase) inhibitory activity A test substance (compound of the present invention) and a reaction mixture (30 μl) having the following composition were reacted at 25° C. for 90 min.
10% Trichloroacetic acid at 4° C. and 1% sodium pyrophosphate solution (150 μl) were added to this reaction mixture to stop the reaction. The reaction mixture was left standing in ice for 15 min to insolubilize RNA. This RNA was trapped on a glass filter (Whatman GF/C and the like) upon filtration by suction. This filter was washed with a solution containing 1% trichloroacetic acid and 0.1% sodium pyrophosphate, washed with 90% ethanol and dried. A liquid scintillation cocktail (Packard) was added and the radioactivity of RNA synthesized by the enzyme reaction was measured on a liquid scintillation counter.
The HCV polymerase inhibitory activity (IC50) of the compound of the present invention was calculated from the values of radioactivity of the enzyme reaction with and without the 20 test substance. […]

T1 sequence (P27958 2421-3011): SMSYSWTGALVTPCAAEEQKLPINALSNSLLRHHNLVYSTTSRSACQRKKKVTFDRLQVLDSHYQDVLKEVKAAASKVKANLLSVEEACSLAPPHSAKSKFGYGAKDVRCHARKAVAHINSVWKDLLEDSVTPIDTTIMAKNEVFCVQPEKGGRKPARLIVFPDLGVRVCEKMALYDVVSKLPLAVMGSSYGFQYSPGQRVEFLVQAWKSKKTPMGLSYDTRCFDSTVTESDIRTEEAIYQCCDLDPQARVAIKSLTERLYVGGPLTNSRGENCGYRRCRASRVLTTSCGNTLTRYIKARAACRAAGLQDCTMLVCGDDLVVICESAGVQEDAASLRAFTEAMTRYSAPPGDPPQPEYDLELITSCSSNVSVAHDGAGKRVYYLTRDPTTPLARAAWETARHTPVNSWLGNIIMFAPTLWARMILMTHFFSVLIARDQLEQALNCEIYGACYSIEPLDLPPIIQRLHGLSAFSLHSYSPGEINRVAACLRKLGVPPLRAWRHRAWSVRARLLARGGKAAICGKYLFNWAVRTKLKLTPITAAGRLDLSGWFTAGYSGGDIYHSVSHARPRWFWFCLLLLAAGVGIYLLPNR

CS(=O)(=O)c1ccc(N2CCOCC2)c(COc2ccc3c(c2)OCCn2c-3c(C3CCCCC3)c3sc(C(N)=O)cc32)c1 [Example 4, 11-cyclohexyl-8-[5-methanesulfonyl-2-(morpholin-4-yl)benzyloxy]-4,5-dihydro-6-oxa-1-thia-3b-azabenzo[e]cyclopenta[a]azulene-2-carboxamide]
IC50 [1]: 0.01 to 0.1 µM
IC50 [2]: < 0.01 µM

COCC[C@@H]1CCCN(CCN2CCn3c(c(C4CCCCC4)c4sc(C(=O)O)cc43)-c3ccc(C)cc32)C1 [Example 27, (S)-11-cyclohexyl-6-{2-[3-(2-methoxyethyl)piperidin-1-yl]ethyl}-8-methyl-5,6-dihydro-4H-1-thia-3b,6-diazabenzo[e]cyclopenta[a]azulene-2-carboxylic acid dihydrochloride]
IC50 [1]: 0.01 to 0.1 µM
IC50 [2]: 0.01 to 0.1 µM

CCN1CCN(C(=O)CN2CCn3c(c(C4CCCCC4)c4sc(C(=O)O)cc43)-c3ccc(C)cc32)CC1 [Example 35, 11-cyclohexyl-6-[2-(4-ethylpiperazin-1-yl)-2-oxoethyl]-8-methyl-5,6-dihydro-4H-1-thia-3b,6-diazabenzo[e]cyclopenta[a]azulene-2-carboxylic acid dihydrochloride]
IC50 [1]: 0.01 to 0.1 µM
IC50 [2]: 0.01 to 0.1 µM

O=C(O)c1cc2c(s1)c(C1CCCCC1)c1n2CCN(CCN2CCCOCC2)c2cc(Cl)ccc2-1 [Example 32, 8-chloro-11-cyclohexyl-6-[2-(1,4-oxazepan-4-yl)ethyl]-5,6-dihydro-4H-1-thia-3b,6-diazabenzo[e]cyclopenta[a]azulene-2-carboxylic acid dihydrochloride]
IC50 [1]: 0.01 to 0.1 µM
IC50 [2]: < 0.01 µM

O=C(O)c1cc2c(s1)c(C1CCCCC1)c1n2CCN(CCN2CCCCCCC2)c2cc(Cl)ccc2-1 [Example 29, 6-[2-(azocan-1-yl)ethyl]-8-chloro-11-cyclohexyl-5,6-dihydro-4H-1-thia-3b,6-diazabenzo[e]cyclopenta[a]azulene-2-carboxylic acid dihydrochloride]
IC50 [1]: 0.01 to 0.1 µM
IC50 [2]: 0.01 to 0.1 µM

Cc1ccc2c(c1)N(CCN1CCCC(C)C1)CCn1c-2c(C2CCCCC2)c2sc(C(=O)O)cc21 (stereo not drawn) [Example 26, 11-cyclohexyl-8-methyl-6-[2-(3-methylpiperidin-1-yl)ethyl]-5,6-dihydro-4H-1-thia-3b,6-diazabenzo[e]cyclopenta[a]azulene-2-carboxylic acid dihydrochloride]
IC50 [1]: 0.01 to 0.1 µM
IC50 [2]: 0.01 to 0.1 µM

CCOc1ccc2c(c1)N(C)CCn1c-2c(C2CCCCC2)c2sc(C(=O)O)cc21 [Example 44, 11-cyclohexyl-8-ethoxy-6-methyl-5,6-dihydro-4H-1-thia-3b,6-diazabenzo[e]cyclopenta[a]azulene-2-carboxylic acid]
IC50 [1]: 0.01 to 0.1 µM
IC50 [2]: 0.01 to 0.1 µM

Cc1ccc2c(c1)N(CCN1CCCOCC1)CCn1c-2c(C2CCCCC2)c2sc(C(=O)O)cc21 [Example 28, 11-cyclohexyl-8-methyl-6-[2-(1,4-oxazepan-4-yl)ethyl]-5,6-dihydro-4H-1-thia-3b,6-diazabenzo[e]cyclopenta[a]azulene-2-carboxylic acid dihydrochloride]
IC50 [1]: 0.01 to 0.1 µM
IC50 [2]: 0.01 to 0.1 µM

Cc1ccc2c(c1)N(CCN1CCCCC1)CCn1c-2c(C2CCCCC2)c2sc(C(=O)O)cc21 [Example 19, 11-cyclohexyl-8-methyl-6-[2-(piperidin-1-yl)ethyl]-5,6-dihydro-4H-1-thia-3b,6-diazabenzo[e]cyclopenta[a]azulene-2-carboxylic acid dihydrochloride]
IC50 [1]: 0.01 to 0.1 µM
IC50 [2]: < 0.01 µM

CCOc1ccc2c(c1)OCCn1c-2c(C2CCCCC2)c2sc(C(=O)O)cc21 [Example 41, 11-cyclohexyl-8-ethoxy-4,5-dihydro-6-oxa-1-thia-3b-azabenzo[e]cyclopenta[a]azulene-2-carboxylic acid]
IC50 [1]: 0.01 to 0.1 µM
IC50 [2]: 0.01 to 0.1 µM

CC1CCCN(CCN2CCn3c(c(C4CCCCC4)c4sc(C(=O)O)cc43)-c3ccccc32)C1 (stereo not drawn) [Example 22, 11-cyclohexyl-6-[2-(3-methylpiperidin-1-yl)ethyl]-5,6-dihydro-4H-1-thia-3b,6-diazabenzo[e]cyclopenta[a]azulene-2-carboxylic acid dihydrochloride]
IC50 [1]: 0.01 to 0.1 µM
IC50 [2]: 0.01 to 0.1 µM

Cc1ccc2c(c1)N(CCN1CCCCCCC1)CCn1c-2c(C2CCCCC2)c2sc(C(=O)O)cc21 [Example 25, 6-[2-(azocan-1-yl)ethyl]-11-cyclohexyl-8-methyl-5,6-dihydro-4H-1-thia-3b,6-diazabenzo[e]cyclopenta[a]azulene-2-carboxylic acid dihydrochloride]
IC50 [1]: 0.01 to 0.1 µM
IC50 [2]: < 0.01 µM

CS(=O)(=O)c1ccc(N2CCOCC2)c(COc2ccc3c(c2)OCCn2c-3c(C3CCCCC3)c3sc(C(=O)O)cc32)c1 [Example 3, 11-cyclohexyl-8-[5-methanesulfonyl-2-(morpholin-4-yl)benzyloxy]-4,5-dihydro-6-oxa-1-thia-3b-azabenzo[e]cyclopenta[a]azulene-2-carboxylic acid]
IC50 [1]: 0.01 to 0.1 µM
IC50 [2]: < 0.01 µM

O=C(O)c1cc2c(s1)c(C1CCCCC1)c1n2CCOc2c-1cccc2N(CCN1CCCCC1)CCN1CCCCC1 [Example 42, 7-{bis[2-(piperidin-1-yl)ethyl]amino}-11-cyclohexyl-4,5-dihydro-6-oxa-1-thia-3b-azabenzo[e]cyclopenta[a]azulene-2-carboxylic acid trihydrochloride]
IC50 [1]: 0.01 to 0.1 µM
IC50 [2]: < 0.01 µM

CCN1CCN(C(=O)CN2CCn3c(c(C4CCCCC4)c4sc(C(=O)O)cc43)-c3ccccc32)CC1 [Example 14, 11-cyclohexyl-6-[2-(4-ethylpiperazin-1-yl)-2-oxoethyl]-5,6-dihydro-4H-1-thia-3b,6-diazabenzo[e]cyclopenta[a]azulene-2-carboxylic acid dihydrochloride]
IC50 [1]: 0.01 to 0.1 µM
IC50 [2]: 0.01 to 0.1 µM

COCC[C@@H]1CCCN(CCN2CCn3c(c(C4CCCCC4)c4sc(C(=O)O)cc43)-c3ccccc32)C1 [Example 23, (S)-11-cyclohexyl-6-{2-[3-(2-methoxyethyl)piperidin-1-yl]ethyl)-5,6-dihydro-4H-1-thia-3b,6-diazabenzo[e]cyclopenta[a]azulene-2-carboxylic acid dihydrochloride]
IC50 [1]: 0.01 to 0.1 µM
IC50 [2]: 0.01 to 0.1 µM

O=C(O)c1cc2c(s1)c(C1CCCCC1)c1n2CCOc2cc(OCc3cc(N4CCCC4=O)ccc3N3CCOCC3)ccc2-1 [Example 16, 11-cyclohexyl-8-[2-(morpholin-4-yl)-5-(2-oxopyrrolidin-1-yl)benzyloxy]-4,5-dihydro-6-oxa-1-thia-3b-azabenzo[e]cyclopenta[a]azulene-2-carboxylic acid hydrochloride]
IC50 [1]: 0.01 to 0.1 µM
IC50 [2]: < 0.01 µM

CC(C)(C)OC(=O)N1CCN(CCN2CCn3c(c(C4CCCCC4)c4sc(C(=O)O)cc43)-c3ccc(Cl)cc32)CC1 [Example 34, 6-[2-(4-tert-butoxycarbonylpiperazin-1-yl)ethyl]-8-chloro-11-cyclohexyl-5,6-dihydro-4H-1-thia-3b,6-diazabenzo[e]cyclopenta[a]azulene-2-carboxylic acid hydrochloride]
IC50 [1]: 0.01 to 0.1 µM
IC50 [2]: 0.01 to 0.1 µM

— patent US7659263B2, “Thienopyrrole compound and use thereof as HCV polymerase inhibitor” (Japan Tobacco Inc., priority 2004, dated 2010)
